The source of these data is patent US20030102246A1, “Method for improving the stability of stored and/or used light-sensitive therapeutic systems or components thereof” (LTS Lohmann Therapie-Systeme AG, priority 1999, published 2003).

Series [1] can be described thus: Light stability of lacidipine solution in differently coloured polypropylene vessels exposed to daylight. The series is classed as physicochemical. Particulars: daylight 6 to 8 hours. As for the experimental part:
As a representative of the very light-sensitive 1,4-dihydropyridine derivatives, lacidipine is used. By way of the example of lacidipine it is possible to show the influence the absorption spectrum of a polymer, for instance, one based on polypropylene, has on the stability of the 1,4-dihydropyridine derivative.
To carry out the experiment, the lacidipine was dissolved in a solvent. Since dissolved lacidipine is very sensitive to electromagnetic-radiation, it was possible to clearly determine the influence of the polymers examined. The lacidipine solution was filled in differently coloured vessels of polypropylene and exposed to daylight for a defined period of time. The vessels in this context served as models for a coloured film. After the vessels had been exposed to a certain radiation (for a time of 6 to 8 hours), the lacidipine content of the samples was determined. On the basis of the known initial concentration and the detected active substance amounts it was possible to make a statement on the protective action of the polymers used.
The absorption spectrum of lacidipine contains three maxima [238.4 nm; 282.8 nm; 367.4 nm]. These wavelength regions determine the light-sensitivity of the active substance. […] It can thus be concluded that to ensure maximum stability in the present case brown or aluminized polymers should be used.

For series [2] the following is noted: cited from earlier work.

For `CCOC(=O)C1=C(C)NC(C)=C(C(=O)OCC)C1c1ccccc1/C=C/C(=O)OC(C)(C)C` [lacidipine], the “Amount of active substance after irradiation” value was 99.36 % of initial amount in series [1] (polymer aluminized, lichtundurchlässig); 23.46 % of initial amount in series [1] (polymer blue, clear, absorption range <325 nm, 500 nm-700 nm); 98.93 % of initial amount in series [1] (polymer brown, clear, absorption range <500 nm); 12.40 % of initial amount in series [1] (polymer green, clear, absorption range <325 nm, >800 nm); 15.65 % of initial amount in series [1] (polymer orange, klar, absorption range 550 nm-750 nm); 14.79 % of initial amount in series [1] (polymer transparent, clear, absorption range <300 nm). The “Amount of active substance after irradiation” value in series [1] (polymer transparent, cloudy, absorption range <300 nm) is given as 21.05 % of initial amount; in series [1] (polymer yellow, clear, absorption range <350 nm, >700 nm) it was 29.32 % of initial amount.
Take `CC1=C(/C=C/C(C)=C/C=C/C(C)=C/C(=O)O)C(C)(C)CCC1` [vitamine A acid]: the “rate of degradation of the active substance” value in series [2] (with a yellow colourant having its absorption maximum in the range of 400 nm) is given as “substantially reduced”. Besides, the stabilisation against light entry in series [2] (with light-stability or screening agents absorbing UV-A or UV-B rays) is listed as “did not yield the desired results”.
